Experimental data as given in ChEMBL document CHEMBL4483862, “Open-source discovery of chemical leads for next-generation chemoprotective antimalarials” (2018).

System: Plasmodium berghei
Test: Luciferase/luciferin-expressing antifolate-resistant parasites were used to infect a culture of HepG2 cells that were pre-incubated with compounds. Infected hepatocytes emit light due to the luciferase reaction. Assay results are presented as the percent inhibition of light emission compared to control. […]
Format: functional
Conditions: sporozoite; for IC90: read-out: LUCIFERASE INFECTION ASSAY - IC90

## C=CCn1c(C)cc(C(=O)CSc2nc3ccccc3o2)c1C
HEPG2TOX_HILL_SLOPE 2.02, HEPG2TOX_R_SQUARED 0.572, PBLUC_HILL_SLOPE 43.7, PBLUC_R_SQUARED 0.493, read-out: LUCIFERASE INFECTION ASSAY - IC50
  IC50: 0.123 µM
  IC90: 0.129 µM

## Nc1nccc(/C=C/c2c(F)cccc2Cl)n1
HEPG2TOX_HILL_SLOPE 2, HEPG2TOX_R_SQUARED 0.972, PBLUC_HILL_SLOPE 2.11, PBLUC_R_SQUARED 0.172, read-out: LUCIFERASE INFECTION ASSAY - IC50
  IC50: 8.94 µM
  IC90: > 13.2 µM

## COc1ccc2[nH]c3c(NCCC4=CCCCC4)ncnc3c2c1
HEPG2TOX_HILL_SLOPE 2.01, HEPG2TOX_R_SQUARED 0.344, PBLUC_HILL_SLOPE 1.69, PBLUC_R_SQUARED 0.738, read-out: LUCIFERASE INFECTION ASSAY - IC50
  IC50: 1.42 µM
  IC90: 5.19 µM

## Cc1ccc(C)c(C(=O)C(C)Sc2nnc(-c3cccc(Br)c3)o2)c1 (configuration not stated)
HEPG2TOX_HILL_SLOPE 2.02, HEPG2TOX_R_SQUARED 0.871, PBLUC_HILL_SLOPE 4.17, 0.287, PBLUC_R_SQUARED 0.527, 0.262, read-out: LUCIFERASE INFECTION ASSAY - IC50
  IC50: 4.21 µM
  IC90: 9.4 µM

## O=C(Nc1cccc(F)c1)Nc1ccc2nc(Cc3ccccc3)nn2c1
HEPG2TOX_HILL_SLOPE 1.95, HEPG2TOX_R_SQUARED 0.988, PBLUC_HILL_SLOPE 12.2, PBLUC_R_SQUARED 0.455, read-out: LUCIFERASE INFECTION ASSAY - IC50
  IC50: 1.12 µM
  IC90: 1.35 µM

## Cc1ccc(C(=O)COC(=O)Cc2n[nH]c(=O)c3ccccc23)s1
HEPG2TOX_HILL_SLOPE 1.97, HEPG2TOX_R_SQUARED 0.94, PBLUC_HILL_SLOPE 2.28, PBLUC_R_SQUARED 0.564, read-out: LUCIFERASE INFECTION ASSAY - IC50
  IC50: 3.44 µM
  IC90: 9 µM

## Cc1cccc(C(=O)Nc2nc3ccccn3c2C(=O)NC2CCCCC2)c1
HEPG2TOX_HILL_SLOPE 2.01, HEPG2TOX_R_SQUARED 0.621, PBLUC_HILL_SLOPE 5.25, PBLUC_R_SQUARED 0.58, read-out: LUCIFERASE INFECTION ASSAY - IC50
  IC50: 1.91 µM
  IC90: 2.91 µM

## COc1ccc(-c2nnc(NC(=O)c3ccc(C)c(S(=O)(=O)N4CCCCC4)c3)[nH]2)cc1
HEPG2TOX_HILL_SLOPE 2.01, HEPG2TOX_R_SQUARED 0.893, PBLUC_HILL_SLOPE 2.99, PBLUC_R_SQUARED 0.681, read-out: LUCIFERASE INFECTION ASSAY - IC50
  IC50: 3.12 µM
  IC90: 6.51 µM

## COc1ccc(OC)c(CCNc2nc3cnc(-c4ccc(OC)nc4)cc3n2C)c1
HEPG2TOX_HILL_SLOPE 1.95, HEPG2TOX_R_SQUARED 0.873, PBLUC_HILL_SLOPE 2.34, PBLUC_R_SQUARED 0.799, read-out: LUCIFERASE INFECTION ASSAY - IC50
  IC50: 1.11 µM
  IC90: 2.85 µM

## O=S(=O)(c1ccc2oc(Nc3ccc(-c4nc5ccccc5[nH]4)cc3)nc2c1)N1CCOCC1
HEPG2TOX_HILL_SLOPE 1.96, HEPG2TOX_R_SQUARED 0.85, PBLUC_HILL_SLOPE 1.98, 8.82, PBLUC_R_SQUARED 0.398, 0.470, read-out: LUCIFERASE INFECTION ASSAY - IC50
  IC50: 1.54 µM
  IC90: 3.62 µM

## CCOc1cccc(-c2cn3c(-c4ccc5ncccc5c4)cnc3cn2)c1
HEPG2TOX_HILL_SLOPE 1.97, HEPG2TOX_R_SQUARED 0.663, PBLUC_HILL_SLOPE 2.12, PBLUC_R_SQUARED 0.862, read-out: LUCIFERASE INFECTION ASSAY - IC50
  IC50: 0.0341 µM
  IC90: 0.0959 µM

## O=C(NCc1ccc(-c2cccs2)s1)c1ccc([N+](=O)[O-])o1
HEPG2TOX_HILL_SLOPE 1.96, HEPG2TOX_R_SQUARED 0.945, PBLUC_HILL_SLOPE 1.03, PBLUC_R_SQUARED 0.326, read-out: LUCIFERASE INFECTION ASSAY - IC50
  IC50: > 9.87 µM
  IC90: > 9.87 µM

## C=CCN(C(=O)CCc1ccc(S(=O)(=O)N2CCCCCC2)cc1)c1nc2c(s1)CCCC2
HEPG2TOX_HILL_SLOPE 1.95, HEPG2TOX_R_SQUARED 0.844, PBLUC_HILL_SLOPE 2.62, PBLUC_R_SQUARED 0.304, read-out: LUCIFERASE INFECTION ASSAY - IC50
  IC50: 8.2 µM
  IC90: > 10 µM

## O=S(=O)(c1ccccc1NCc1ccnc(N2CCCC2)c1)C(F)(F)F
HEPG2TOX_HILL_SLOPE 1.99, HEPG2TOX_R_SQUARED 0.873, PBLUC_HILL_SLOPE 3.99, PBLUC_R_SQUARED 0.0495, read-out: LUCIFERASE INFECTION ASSAY - IC50
  IC50: 6.48 µM
  IC90: > 10 µM

## Cc1cn2c(CNCCc3ccc(N4CCCCC4)cc3)c(C)nc2s1
HEPG2TOX_HILL_SLOPE 1.99, HEPG2TOX_R_SQUARED 0.618, PBLUC_HILL_SLOPE 85.2, PBLUC_R_SQUARED 0.531, read-out: LUCIFERASE INFECTION ASSAY - IC50
  IC50: 0.591 µM
  IC90: 0.606 µM

## COc1ccc(NS(=O)(=O)c2cccc(C(=O)Nc3ncc(C)s3)c2)cc1Br
HEPG2TOX_HILL_SLOPE 1.95, HEPG2TOX_R_SQUARED 0.754, PBLUC_HILL_SLOPE 9.08, 8.50, PBLUC_R_SQUARED 0.373, 0.408, read-out: LUCIFERASE INFECTION ASSAY - IC50
  IC50: 5.79 µM
  IC90: 4.59 µM

## CC(C)NC(=O)c1c(NC(=O)c2ccc(C#N)cc2)nc2ccccn12
HEPG2TOX_HILL_SLOPE 1.96, HEPG2TOX_R_SQUARED 0.946, PBLUC_HILL_SLOPE 9.83, PBLUC_R_SQUARED 0.197, read-out: LUCIFERASE INFECTION ASSAY - IC50
  IC50: 8.07 µM
  IC90: > 9.5 µM

## Cc1ccccc1-c1noc(CN(C2CCCc3ccccc32)S(C)(=O)=O)n1 (configuration not stated)
HEPG2TOX_HILL_SLOPE 2, HEPG2TOX_R_SQUARED 0.927, PBLUC_HILL_SLOPE 1.37, PBLUC_R_SQUARED 0.678, read-out: LUCIFERASE INFECTION ASSAY - IC50
  IC50: 1.93 µM
  IC90: > 8.3 µM

## COc1ccc(-c2cnc3c(Nc4cccc(OC(F)(F)C(F)F)c4)nccn23)cc1
HEPG2TOX_HILL_SLOPE 1.95, HEPG2TOX_R_SQUARED 0.977, PBLUC_HILL_SLOPE 27.6, PBLUC_R_SQUARED 0.693, read-out: LUCIFERASE INFECTION ASSAY - IC50
  IC50: 2.47 µM
  IC90: 2.67 µM

## Cc1nc(NC(=O)CCc2c[nH]c3ccccc23)sc1-c1ccccn1
HEPG2TOX_HILL_SLOPE 2, HEPG2TOX_R_SQUARED 0.799, PBLUC_HILL_SLOPE 14.5, PBLUC_R_SQUARED 0.715, read-out: LUCIFERASE INFECTION ASSAY - IC50
  IC50: 3.02 µM
  IC90: 3.51 µM

## N#Cc1ccc(OCc2nc3ccccc3n2C(F)F)cc1
HEPG2TOX_HILL_SLOPE 1.97, HEPG2TOX_R_SQUARED 0.844, PBLUC_HILL_SLOPE 169, PBLUC_R_SQUARED 0.414, read-out: LUCIFERASE INFECTION ASSAY - IC50
  IC50: 4.36 µM
  IC90: 4.42 µM

## CC(C)(C)c1ccc(OCc2ccc(C(=O)N3CCN(CC(=O)NC4CC4)CC3)cc2)cc1
HEPG2TOX_HILL_SLOPE 1.95, HEPG2TOX_R_SQUARED 0.886, PBLUC_HILL_SLOPE 11.8, PBLUC_R_SQUARED 0.642, read-out: LUCIFERASE INFECTION ASSAY - IC50
  IC50: 8.43 µM
  IC90: > 10 µM

## Cc1cc(C(=O)OCc2ccc(-n3nc(C)cc3C)cc2)c2ccccc2n1
HEPG2TOX_HILL_SLOPE 1.96, HEPG2TOX_R_SQUARED 0.0908, PBLUC_HILL_SLOPE 15.9, PBLUC_R_SQUARED 0.28, read-out: LUCIFERASE INFECTION ASSAY - IC50
  IC50: 3.66 µM
  IC90: 4.21 µM

## CCOc1ccc(C(=O)NNC(=O)c2cc(Cl)ccc2O)cc1
HEPG2TOX_HILL_SLOPE 1.98, HEPG2TOX_R_SQUARED 0.918, PBLUC_HILL_SLOPE 3.04, PBLUC_R_SQUARED 0.138, read-out: LUCIFERASE INFECTION ASSAY - IC50
  IC50: 7.76 µM
  IC90: > 10 µM

## Cc1cccc(Nc2ncc(C(=O)c3cccc(-c4ccncc4)c3)[nH]2)c1
HEPG2TOX_HILL_SLOPE 1.98, HEPG2TOX_R_SQUARED 0.759, PBLUC_HILL_SLOPE 4.11, PBLUC_R_SQUARED 0.608, read-out: LUCIFERASE INFECTION ASSAY - IC50
  IC50: 1.18 µM
  IC90: 2.02 µM

## O=C(Nc1ccc(-n2cnc3ccccc32)cc1)c1ccc(NC(=O)C2CC2)cc1
HEPG2TOX_HILL_SLOPE 1.98, HEPG2TOX_R_SQUARED 0.988, PBLUC_HILL_SLOPE 3.86, PBLUC_R_SQUARED 0.781, read-out: LUCIFERASE INFECTION ASSAY - IC50
  IC50: 6.59 µM
  IC90: > 10 µM

## CCCCC(=O)NNC(=O)c1nn(-c2ccccc2)cc1O
HEPG2TOX_HILL_SLOPE 1.96, 5.56, HEPG2TOX_R_SQUARED 0.938, 0.275, PBLUC_HILL_SLOPE 4.09, 13.0, PBLUC_R_SQUARED 0.105, 0.390, read-out: LUCIFERASE INFECTION ASSAY - IC50
  IC50: 4.4 µM
  IC90: 6.61 µM

## N#Cc1cc(-c2ccccc2)nnc1NCc1ccc(Cl)cc1
HEPG2TOX_HILL_SLOPE 2, HEPG2TOX_R_SQUARED 0.904, PBLUC_HILL_SLOPE 2.36, PBLUC_R_SQUARED 0.485, read-out: LUCIFERASE INFECTION ASSAY - IC50
  IC50: 6.28 µM
  IC90: > 10.3 µM

## OCc1ccc(-c2cnc3ccc(-c4ccc(F)cc4)nn23)cc1
HEPG2TOX_HILL_SLOPE 1.97, HEPG2TOX_R_SQUARED 0.914, PBLUC_HILL_SLOPE 1.12, PBLUC_R_SQUARED 0.781, read-out: LUCIFERASE INFECTION ASSAY - IC50
  IC50: 0.738 µM
  IC90: 5.21 µM

## Cc1cc(N(C)Cc2ccccc2Br)nc(N)n1
HEPG2TOX_HILL_SLOPE 1.99, HEPG2TOX_R_SQUARED 0.929, PBLUC_HILL_SLOPE 3.52, PBLUC_R_SQUARED 0.797, read-out: LUCIFERASE INFECTION ASSAY - IC50
  IC50: 1.23 µM
  IC90: 2.29 µM

## COc1ccc(-c2cc3c(cn2)nc(NCCc2cc(OC)ccc2OC)n3C)c(C)c1
HEPG2TOX_HILL_SLOPE 1.97, HEPG2TOX_R_SQUARED 0.898, PBLUC_HILL_SLOPE 1.3, PBLUC_R_SQUARED 0.74, read-out: LUCIFERASE INFECTION ASSAY - IC50
  IC50: 0.669 µM
  IC90: 3.63 µM
